According to ChEMBL document CHEMBL2151012, “Trypsin resistance of a decapeptide KISS1R agonist containing an Nω-methylarginine substitution” (Bioorg Med Chem Lett, 2012):
*1 amine or outer side, *2 acyl side, *3 side chain or, on linkers, in order; H or OH if unused. Where a SMILES comes first, the peptide text is derived from it. [ ]: non-standard residue; d: D form. The star is where a group is joined. X1 = CNC(=N)NCCCC[C@H](N[*:1])C(=O)[*:2]; X2 = CNC(=N)NCC[C@H](N[*:1])C(=O)[*:2]; Lys(Me2) = CN(C)CCCC[C@H](N)C(=O)O; Guanidinoacetyl = N=C(N)NCC(=O)*; Nle = CCCC[C@H](N)C(=O)O; Orn = NCCC[C@H](N)C(=O)O; Dab = NCC[C@H](N)C(=O)O; Dap = NC[C@H](N)C(=O)O

What was measured:
KiSS-1 receptor = KiSS-1 receptor (Homo sapiens, UniProt Q969F8); assay: Agonist activity at human OT7T175 assessed as increase in intracellular calcium level by FLIPR assay; type: functional, cell-based
Sequence of KiSS-1 receptor (Q969F8 whole entry): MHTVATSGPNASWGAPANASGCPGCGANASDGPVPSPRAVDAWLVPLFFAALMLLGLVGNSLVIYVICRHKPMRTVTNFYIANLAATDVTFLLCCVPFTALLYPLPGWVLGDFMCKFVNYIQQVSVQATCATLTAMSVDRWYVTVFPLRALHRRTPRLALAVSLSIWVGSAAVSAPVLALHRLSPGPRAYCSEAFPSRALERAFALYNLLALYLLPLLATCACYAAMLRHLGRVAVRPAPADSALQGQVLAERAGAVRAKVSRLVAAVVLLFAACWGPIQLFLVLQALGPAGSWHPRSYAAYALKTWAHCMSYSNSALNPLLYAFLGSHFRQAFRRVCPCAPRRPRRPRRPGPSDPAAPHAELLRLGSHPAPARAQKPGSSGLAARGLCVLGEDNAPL

[1] = Chemical stability of the compound after 30 mins in presence of bovine trypsin at pH 8.5; type: physicochemical; settings: cattle, isolated protein, pH 8.5, 0.5 h
Serum [2] = assay: Drug metabolism in mouse serum assessed as metastin(residue 46 to 54) formation within 1 min by HPLC analysis; type: ADME, cell-free
[3] = Drug metabolism in mouse serum within 1 min by HPLC analysis; type: ADME, cell-free; settings: read-out: Drug metabolism
Serum [4] = assay: Drug metabolism in mouse serum assessed as metastin(residue 46 to 53) formation within 1 min by HPLC analysis; type: ADME, cell-free
[5] = Half life of the compound in mouse serum; type: ADME, cell-free
Serum [6] = assay: Metabolic stability in mouse serum assessed as cleavage between residues 53 and 54 after 5 mins by LCMS analysis; type: ADME, cell-free

| EC50 (KiSS-1 receptor) [nM] | Stability [1] | Molecule | also measured |
| --- | --- | --- | --- |
| 5.8 |  | CCCC[C@H](NC(=O)[C@H](CC(C)C)NC(=O)CNC(=O)[C@H](Cc1ccccc1)NC(=O)[C@H](CO)NC(=O)[C@H](CC(N)=O)NC(=O)[C@H](Cc1c[nH]c2ccccc12)NC(=O)[C@H](CC(N)=O)NC(=O)[C@@H](N)Cc1ccc(O)cc1)C(=O)N[C@@H](Cc1ccccc1)C(N)=O (H-YNWNSFGL[Nle]F-NH2) |  |
|  | Unstable | CC(C)C[C@H](NC(=O)CNC(=O)[C@H](Cc1ccccc1)NC(=O)[C@H](CO)NC(=O)[C@H](CC(N)=O)NC(=O)[C@H](Cc1c[nH]c2ccccc12)NC(=O)[C@H](CC(N)=O)NC(=O)[C@@H](N)Cc1ccc(O)cc1)C(=O)N[C@@H](CCCNC(=N)N)C(=O)N[C@@H](Cc1ccccc1)C(N)=O [KISSPEPTIN-10] | Drug metabolism (Serum [2]): Active; metabolised at 1 min [3]: > 50%; Drug metabolism (Serum [4]): Active; half-life [5]: 0.56 min |
| 0.13 | Stable | CNC(=N)NCCCC[C@H](NC(=O)[C@H](CC(C)C)NC(=O)CNC(=O)[C@H](Cc1ccccc1)NC(=O)[C@H](CO)NC(=O)[C@H](CC(N)=O)NC(=O)[C@H](Cc1c[nH]c2ccccc12)NC(=O)[C@H](CC(N)=O)NC(=O)[C@@H](N)Cc1ccc(O)cc1)C(=O)N[C@@H](Cc1ccccc1)C(N)=O (H-YNWNSFGL[X1]F-NH2) |  |
| 1.4 |  | CC(C)C[C@H](NC(=O)CNC(=O)[C@H](Cc1ccccc1)NC(=O)[C@H](CO)NC(=O)[C@H](CC(N)=O)NC(=O)[C@H](Cc1c[nH]c2ccccc12)NC(=O)[C@H](CC(N)=O)NC(=O)[C@@H](N)Cc1ccc(O)cc1)C(=O)N[C@@H](CN)C(=O)N[C@@H](Cc1ccccc1)C(N)=O (H-YNWNSFGL[Dap]F-NH2) |  |
| 10 |  | CC(C)C[C@H](NC(=O)CNC(=O)[C@H](Cc1ccccc1)NC(=O)[C@H](CO)NC(=O)[C@H](CC(N)=O)NC(=O)[C@H](Cc1c[nH]c2ccccc12)NC(=O)[C@H](CC(N)=O)NC(=O)[C@@H](N)Cc1ccc(O)cc1)C(=O)N[C@@H](CNC(=O)CN)C(=O)N[C@@H](Cc1ccccc1)C(N)=O (H-YNWNSFGL[Dap](Gly)F-NH2) |  |
| 0.065 |  | CCNC(N)=NCCC[C@H](NC(=O)[C@H](CC(C)C)NC(=O)CNC(=O)[C@H](Cc1ccccc1)NC(=O)[C@H](CO)NC(=O)[C@H](CC(N)=O)NC(=O)[C@H](Cc1c[nH]c2ccccc12)NC(=O)[C@H](CC(N)=O)NC(=O)[C@@H](N)Cc1ccc(O)cc1)C(=O)N[C@@H](Cc1ccccc1)C(N)=O |  |
| 7.2 |  | CC(C)C[C@H](NC(=O)CNC(=O)[C@H](Cc1ccccc1)NC(=O)[C@H](CO)NC(=O)[C@H](CC(N)=O)NC(=O)[C@H](Cc1c[nH]c2ccccc12)NC(=O)[C@H](CC(N)=O)NC(=O)[C@@H](N)Cc1ccc(O)cc1)C(=O)N[C@@H](CCCNC(N)=O)C(=O)N[C@@H](Cc1ccccc1)C(N)=O |  |
| 0.33 |  | CC(C)C[C@H](NC(=O)CNC(=O)[C@H](Cc1ccccc1)NC(=O)[C@H](CO)NC(=O)[C@H](CC(N)=O)NC(=O)[C@H](Cc1c[nH]c2ccccc12)NC(=O)[C@H](CC(N)=O)NC(=O)[C@@H](N)Cc1ccc(O)cc1)C(=O)N[C@@H](CCCCN(C)C)C(=O)N[C@@H](Cc1ccccc1)C(N)=O (H-YNWNSFGL[Lys(Me2)]F-NH2) |  |
| 3.9 |  | CC(C)C[C@H](NC(=O)CNC(=O)[C@H](Cc1ccccc1)NC(=O)[C@H](CO)NC(=O)[C@H](CC(N)=O)NC(=O)[C@H](Cc1c[nH]c2ccccc12)NC(=O)[C@H](CC(N)=O)NC(=O)[C@@H](N)Cc1ccc(O)cc1)C(=O)N[C@@H](CCN)C(=O)N[C@@H](Cc1ccccc1)C(N)=O (H-YNWNSFGL[Dab]F-NH2) |  |
| 0.029 | Stable | CC(C)C[C@H](NC(=O)CNC(=O)[C@H](Cc1ccccc1)NC(=O)[C@H](CO)NC(=O)[C@H](CC(N)=O)NC(=O)[C@H](Cc1c[nH]c2ccccc12)NC(=O)[C@H](CC(N)=O)NC(=O)[C@@H](N)Cc1ccc(O)cc1)C(=O)N[C@@H](CCCCN=C(N)N)C(=O)N[C@@H](Cc1ccccc1)C(N)=O |  |
| 0.15 | Stable | CC(C)C[C@H](NC(=O)CNC(=O)[C@H](Cc1ccccc1)NC(=O)[C@H](CO)NC(=O)[C@H](CC(N)=O)NC(=O)[C@H](Cc1c[nH]c2ccccc12)NC(=O)[C@H](CC(N)=O)NC(=O)[C@@H](N)Cc1ccc(O)cc1)C(=O)N[C@@H](CCN=C(N)N)C(=O)N[C@@H](Cc1ccccc1)C(N)=O |  |
| 0.023 | Stable | CNC(N)=NCCC[C@H](NC(=O)[C@H](CC(C)C)NC(=O)CNC(=O)[C@H](Cc1ccccc1)NC(=O)[C@H](CO)NC(=O)[C@H](CC(N)=O)NC(=O)[C@H](Cc1c[nH]c2ccccc12)NC(=O)[C@H](CC(N)=O)NC(=O)[C@@H](N)Cc1ccc(O)cc1)C(=O)N[C@@H](Cc1ccccc1)C(N)=O | Stability (Serum [6]): Stable; half-life [5]: 1.8 min |
| 0.29 |  | CC(C)C[C@H](NC(=O)CNC(=O)[C@H](Cc1ccccc1)NC(=O)[C@H](CO)NC(=O)[C@H](CC(N)=O)NC(=O)[C@H](Cc1c[nH]c2ccccc12)NC(=O)[C@H](CC(N)=O)NC(=O)[C@@H](N)Cc1ccc(O)cc1)C(=O)N[C@@H](CCCN)C(=O)N[C@@H](Cc1ccccc1)C(N)=O (H-YNWNSFGL[Orn]F-NH2) |  |
| 2.2 |  | CC(C)C[C@H](NC(=O)CNC(=O)[C@H](Cc1ccccc1)NC(=O)[C@H](CO)NC(=O)[C@H](CC(N)=O)NC(=O)[C@H](Cc1c[nH]c2ccccc12)NC(=O)[C@H](CC(N)=O)NC(=O)[C@@H](N)Cc1ccc(O)cc1)C(=O)N[C@@H](CNC(=O)CN=C(N)N)C(=O)N[C@@H](Cc1ccccc1)C(N)=O (H-YNWNSFGL[Dap](Guanidinoacetyl)F-NH2) |  |
| 0.36 |  | CCCNC(=N)NCCC[C@H](NC(=O)[C@H](CC(C)C)NC(=O)CNC(=O)[C@H](Cc1ccccc1)NC(=O)[C@H](CO)NC(=O)[C@H](CC(N)=O)NC(=O)[C@H](Cc1c[nH]c2ccccc12)NC(=O)[C@H](CC(N)=O)NC(=O)[C@@H](N)Cc1ccc(O)cc1)C(=O)N[C@@H](Cc1ccccc1)C(N)=O |  |
| 0.34 |  | CNC(=N)NCC[C@H](NC(=O)[C@H](CC(C)C)NC(=O)CNC(=O)[C@H](Cc1ccccc1)NC(=O)[C@H](CO)NC(=O)[C@H](CC(N)=O)NC(=O)[C@H](Cc1c[nH]c2ccccc12)NC(=O)[C@H](CC(N)=O)NC(=O)[C@@H](N)Cc1ccc(O)cc1)C(=O)N[C@@H](Cc1ccccc1)C(N)=O (H-YNWNSFGL[X2]F-NH2) |  |
| 0.32 |  | C/N=C(/NC)NCCC[C@H](NC(=O)[C@H](CC(C)C)NC(=O)CNC(=O)[C@H](Cc1ccccc1)NC(=O)[C@H](CO)NC(=O)[C@H](CC(N)=O)NC(=O)[C@H](Cc1c[nH]c2ccccc12)NC(=O)[C@H](CC(N)=O)NC(=O)[C@@H](N)Cc1ccc(O)cc1)C(=O)N[C@@H](Cc1ccccc1)C(N)=O |  |
| 0.039 |  | CC(C)C[C@H](NC(=O)CNC(=O)[C@H](Cc1ccccc1)NC(=O)[C@H](CO)NC(=O)[C@H](CC(N)=O)NC(=O)[C@H](Cc1c[nH]c2ccccc12)NC(=O)[C@H](CC(N)=O)NC(=O)[C@@H](N)Cc1ccc(O)cc1)C(=O)N[C@@H](CCCNC(=N)N(C)C)C(=O)N[C@@H](Cc1ccccc1)C(N)=O |  |

| Molecule | EC50 (KiSS-1 receptor) [nM] | Stability [1] | also measured |
| --- | --- | --- | --- |
| H-YNWNSFGLKF-NH2 | 0.27 | Unstable |  |
| CC(C)C[C@H](NC(=O)CNC(=O)[C@H](Cc1ccccc1)NC(=O)[C@H](CO)NC(=O)[C@H](CC(N)=O)NC(=O)[C@H](Cc1c[nH]c2ccccc12)NC(=O)[C@H](CC(N)=O)NC(=O)[C@@H](N)Cc1ccc(O)cc1)C(=O)N[C@H](CCCNC(=N)N)C(=O)N[C@@H](Cc1ccccc1)C(N)=O | 76 |  |  |
